Measurements reported in patent publication US6344476B1, “Inhibition of p38 kinase activity by aryl ureas” (Bayer Corporation, priority 1997, dated 2002).

Compound	melting point
COC(=O)c1sc(C(C)C)cc1NC(=O)Nc1ccccc1 [Example 1, N-(2-carbomethoxy-5-isopropyl-3-thienyl)-N′-(phenyl)urea]	108 to 110 °C
COC(=O)c1sc(C(C)(C)C)cc1NC(=O)Nc1cccc(C)c1 [Example 9, N-(2-Carbomethoxy-5-tert-butyl-3-thienyl)-N′-(3-methylphenyl)urea]	70 to 72 °C
COC(=O)c1sc(C(C)(C)C)cc1NC(=O)Nc1ccc(C)s1 [Example 14, N-(2-Carbomethoxy-5-tert-butyl-3-thienyl)-N′-(5-methyl-2-thienyl)urea]	118 to 120 °C
CNC(=O)c1sc(C(C)(C)C)cc1NC(=O)Nc1ccc(C)cc1 [Example 22, N-(2-methylcarbamoyl-5-tert-butyl-3-thienyl)-N′-(4-methylphenyl)urea]	202 to 204 °C
CCc1ccc(NC(=O)Nc2cc(C(C)(C)C)sc2C(=O)NC)cc1 [Example 23, N-(2-Methylcarbamoyl-5-tert-butyl-3-thienyl)-N′-(4ethylphenyl)urea]	101 to 104 °C
CNC(=O)c1sc(C(C)(C)C)cc1NC(=O)Nc1ccc(C(C)C)cc1 [Example 24, N-(2-Methylcarbamoyl-5-tert-butyl-3-thienyl)-N′-(4-isopropylphenyl)urea]	113 to 120 °C
CNC(=O)c1sc(C(C)(C)C)cc1NC(=O)Nc1ccc(F)cc1 [Example 25, N-(2-methylcarbamoyl-5-tert-butyl-3-thienyl)-N′-(4-fluorophenyl)urea]	203 to 204 °C
CNC(=O)c1sc(C(C)(C)C)cc1NC(=O)Nc1ccc(C)cc1C [Example 27, N-(2-Methylcarbamoyl-5-tert-butyl-3-thienyl)-N′-(2,4-dimethylphenyl)urea]	195 to 196 °C
CNC(=O)c1sc(C(C)(C)C)cc1NC(=O)Nc1ccc(C)c(Cl)c1 [Example 28, N-(2-Methylcarbamoyl-5-tert-butyl-3-thienyl)-N′-(3-chloro-4-methylphenyl)urea]	178 to 179 °C
CNC(=O)c1sc(C(C)(C)C)cc1NC(=O)Nc1ccc(C)c(F)c1 [Example 29, N-(2-Methylcarbamoyl-5-tert-butyl-3-thienyl)-N′-(3-fluoro4-methylphenyl)urea]	182 to 183 °C
CNC(=O)c1sc(C(C)(C)C)cc1NC(=O)Nc1ccc(F)c(Cl)c1 [Example 30, N-(2-Methylcarbamoyl-5-tert-butyl-3-thienyl)-N′-(3chloro-4-fluorophenyl)urea]	203 to 204 °C
COC(=O)c1oc(C(C)(C)C)cc1NC(=O)Nc1ccc(C)cc1 [Example 32, N-(2-carbomethoxy-5-tert-butyl-3-furyl)-N′-(4-methylphenyl)urea]	78 to 79 °C
COC(=O)c1oc(C(C)(C)C)cc1NC(=O)Nc1cccc(Cl)c1Cl [Example 34, N-(2-Carbomethoxy-5-tert-butyl-3-furyl)-N′-(2,3-dichlorophenyl)urea]	195 to 197 °C
CNC(=O)c1oc(C(C)(C)C)cc1NC(=O)Nc1ccc(F)cc1 [Example 36, N-(2-methylcarbamoyl-5-tert-butyl-3-furyl)-N′-(4-fluorophenyl)urea]	109 to 111 °C
COC(=O)c1[nH]c(C(C)(C)C)cc1NC(=O)Nc1ccccc1 [Example 37, N-(2-Carbomethoxy-5-tert-butyl-3-pyrrolyl)-N′-(phenyl)urea]	262 to 263 °C (dec.)
COC(=O)c1[nH]c(C(C)(C)C)cc1NC(=O)Nc1ccc(C)cc1 [Example 38, N-(2carbomethoxy-5-tert-butyl-3-pyrrolyl)-N′-(4-methyl-phenyl)urea]	257 to 258 °C
COC(=O)c1c(NC(=O)Nc2ccc(C)cc2)cc(C(C)(C)C)n1C [Example 40, N-(N-methyl-2-carbomethoxy-5-tert-butyl-3-pyrrolyl)-N′-(4-methylphenyl)urea]	171 to 172 °C
COC(=O)c1cc(C(C)C)sc1NC(=O)Nc1ccccc1 [Example 41, N-(3-Carbomethoxy-5-isopropyl-2-thienyl)-N′-(phenyl)urea]	64 to 65 °C
COC(=O)c1cc(C(C)C)sc1NC(=O)Nc1ccc(C)cc1 [Example 42, N-(3-carbomethoxy-5-isopropyl-2-thienyl)-N′-(4-methylphenyl)urea]	49 to 51 °C
COC(=O)c1cc(C(C)(C)C)sc1NC(=O)Nc1ccccc1 [Example 43, N-(3-Carbomethoxy-5-tert-butyl-2-thienyl)-N′-(phenyl)urea]	80 to 82 °C
COC(=O)c1cc(C(C)(C)C)sc1NC(=O)Nc1ccc(C)cc1 [Example 44, N-(3-carbomethoxy-5-tert-butyl-2-thienyl)-N′-(4-methylphenyl)urea]	109 to 111 °C
CC(=O)NCc1sc(C(C)(C)C)cc1NC(=O)Nc1ccc(C)cc1 [Example 50, N-(2-(N-Acetylaminomethyl)-5-tert-butyl-3-thienyl)-N′-(4-methylphenyl)urea]	203 to 205 °C
Cc1ccc(NC(=O)Nc2cc(C(C)(C)C)sc2CNC(=O)CN)cc1 [Example 51, N-(2-(N-glycylaminomethyl)-5-tert-butyl-3-thienyl)-N′-(4-methylphenyl)urea]	93 to 96 °C
Cc1ccc(NC(=O)Nc2cc(C(C)(C)C)sc2CNC(=O)CNC(=O)OC(C)(C)C)cc1 [Example 52, N-(2-(N-(N-carbo-tert-butoxyglycyl)aminomethyl)-5-tert-butyl-3-thienyl)-N′-(4-methylphenyl)urea]	174 to 176 °C
COC(=O)c1sc(C(C)(C)C)cc1NC(=O)Nc1ccc(F)cc1 [Example 54, N-(2-carbomethoxy-5-tert-butyl-3-thienyl)-N′-(4-fluorophenyl)urea]	160 to 162 °C
CNC(=O)c1[nH]c(C(C)(C)C)cc1NC(=O)Nc1ccc(C)cc1 [Example 113, N-(2-methylcarbamoyl-5-tert-butyl-3-pyrrolyl)-N′-(4-methylphenyl)urea]	164 to 166 °C
